# Experimental data: ChEMBL document CHEMBL5352493, “Dual inhibitors of ASK1 and PDK1 kinases: Design, synthesis, molecular docking and mechanism studies of N-benzyl pyridine-2-one containing derivatives as anti-fibrotic agents” (Eur J Med Chem, 2023)
# What was measured:
# [1] = Antiproliferative against rat NRK-49F cells measured after 48 hrs by CCK8 assay; format: toxicity, cell-based
# [2] = Antiproliferative against HLF1 cells measured after 48 hrs by CCK8 assay; format: toxicity, cell-based; settings: human, HFL1 cells (description prints HLF1)
# [3] = Antiproliferative against rat HSC-T6 cells measured after 48 hrs by CCK8 assay; format: toxicity, cell-based
# [4] = target: T1, Mitogen-activated protein kinase kinase kinase 5 (Homo sapiens, UniProt Q99683); assay: Inhibition of human recombinant ASK1 using MBP as substrate preincubated for 1 hr followed by reagent addition incubated for 40 mins by ATP-Glo kinase assay
# T1 sequence (Q99683 whole entry): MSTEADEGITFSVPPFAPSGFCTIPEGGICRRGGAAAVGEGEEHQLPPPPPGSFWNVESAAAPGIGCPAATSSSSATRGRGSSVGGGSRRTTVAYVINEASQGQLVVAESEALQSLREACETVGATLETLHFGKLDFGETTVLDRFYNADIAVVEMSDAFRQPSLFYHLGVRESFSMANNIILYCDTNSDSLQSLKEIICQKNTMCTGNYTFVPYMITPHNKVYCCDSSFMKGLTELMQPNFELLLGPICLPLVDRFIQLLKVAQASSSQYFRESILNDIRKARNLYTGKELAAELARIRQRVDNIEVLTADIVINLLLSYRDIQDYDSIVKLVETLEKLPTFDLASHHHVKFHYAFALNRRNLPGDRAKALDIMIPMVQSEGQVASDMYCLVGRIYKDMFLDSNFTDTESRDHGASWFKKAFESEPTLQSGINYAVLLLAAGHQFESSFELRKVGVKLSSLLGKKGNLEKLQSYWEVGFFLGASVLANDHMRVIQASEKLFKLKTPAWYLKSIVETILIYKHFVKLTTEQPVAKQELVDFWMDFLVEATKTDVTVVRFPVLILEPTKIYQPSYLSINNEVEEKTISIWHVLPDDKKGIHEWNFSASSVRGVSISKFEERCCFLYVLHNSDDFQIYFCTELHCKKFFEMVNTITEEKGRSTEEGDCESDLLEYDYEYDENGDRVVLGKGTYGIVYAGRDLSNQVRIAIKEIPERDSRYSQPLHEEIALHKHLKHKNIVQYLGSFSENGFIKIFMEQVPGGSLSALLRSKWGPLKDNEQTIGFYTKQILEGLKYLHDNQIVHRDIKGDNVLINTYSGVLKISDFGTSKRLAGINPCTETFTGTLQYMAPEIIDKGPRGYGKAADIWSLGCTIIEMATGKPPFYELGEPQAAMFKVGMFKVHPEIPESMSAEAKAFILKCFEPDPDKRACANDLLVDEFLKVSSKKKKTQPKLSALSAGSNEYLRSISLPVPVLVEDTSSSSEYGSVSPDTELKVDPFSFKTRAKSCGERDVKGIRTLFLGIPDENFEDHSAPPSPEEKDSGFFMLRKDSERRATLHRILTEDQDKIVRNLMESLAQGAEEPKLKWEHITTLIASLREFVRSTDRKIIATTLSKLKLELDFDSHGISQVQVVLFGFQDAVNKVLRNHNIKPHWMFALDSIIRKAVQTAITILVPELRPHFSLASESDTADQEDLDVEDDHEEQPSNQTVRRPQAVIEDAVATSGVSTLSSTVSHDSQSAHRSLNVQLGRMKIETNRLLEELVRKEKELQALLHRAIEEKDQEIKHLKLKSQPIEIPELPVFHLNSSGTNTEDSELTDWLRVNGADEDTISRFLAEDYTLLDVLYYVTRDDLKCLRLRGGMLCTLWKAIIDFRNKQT
# [5] = Antiproliferative against human BEAS-2B cells measured after 48 hrs by CCK8 assay; format: toxicity, cell-based
# [6] = target: T1, Mitogen-activated protein kinase kinase kinase 5; assay: Inhibition of ASK1 (unknown origin)
IC50 [4] [µM],IC50 [6] [µM],SMILES,IC50 at 48 h [1] [µM],IC50 at 48 h [2] [µM],IC50 at 48 h [3] [µM],IC50 at 48 h [5] [µM]
2.18,–,Cn1nc(C(F)(F)F)c2cc(C(=O)Nc3cccc(-c4nncn4C4CCCC4)n3)c(=O)[nH]c21,> 80,> 80,> 80,–
1.02,–,Cn1nc(C(F)(F)F)c2cc(C(=O)Nc3cccc(-c4nncn4C4CCCC4)n3)c(OCc3ccccc3F)nc21,11.4,7.99,14.8,–
> 5,–,CC(C)n1cnnc1-c1cccc(NC(=O)c2cc3c(C(F)(F)F)nn(C)c3nc2OCc2ccccc2F)n1,> 80,17.9,> 80,–
> 5,–,Cn1nc(C(F)(F)F)c2cc(C(=O)Nc3cccc(-c4nncn4C4CCCCC4)n3)c(=O)[nH]c21,> 80,> 80,> 80,–
> 5,–,O=C(Nc1cccc(-c2nncn2C2CC2)n1)c1cc(-c2ccc3scnc3c2)cn(Cc2ccccc2F)c1=O,34.2,68.3,> 80,–
0.489,–,Cn1nc(C(F)(F)F)c2cc(C(=O)Nc3cccc(-c4nncn4C4CC4)n3)c(=O)[nH]c21,> 80,> 80,> 80,–
1.29,–,Cn1nc(C(F)(F)F)c2cc(C(=O)Nc3cccc(-c4nncn4C4CC4)n3)c(OCc3ccccc3F)nc21,55.2,62.5,> 80,–
0.978,–,CCCCn1cnnc1-c1cccc(NC(=O)c2cc3c(C(F)(F)F)nn(C)c3[nH]c2=O)n1,> 80,> 80,> 80,–
> 5,–,O=C(Nc1cccc(-c2nncn2C2CC2)n1)c1cc(-c2cccc3[nH]ccc23)cn(Cc2ccccc2F)c1=O,47,> 80,> 80,–

# Continued, molecule first:
SMILES,IC50 [4] [µM],IC50 [6] [µM],IC50 at 48 h [1] [µM],IC50 at 48 h [2] [µM],IC50 at 48 h [3] [µM],IC50 at 48 h [5] [µM]
CC(C)n1cnnc1-c1cccc(NC(=O)c2cc3c(C(F)(F)F)nn(C)c3[nH]c2=O)c1,> 5,–,> 80,> 80,> 80,–
Cn1nc(C(F)(F)F)c2cc(C(=O)Nc3cccc(-c4nncn4C4CCCC4)c3)c(=O)[nH]c21,> 5,–,> 80,> 80,> 80,–
CCn1c(=O)c(C(=O)Nc2cccc(-c3nncn3C3CCCCC3)n2)cc2c(C(F)(F)F)nn(C)c21,1.57,–,> 80,> 80,> 80,–
O=C(Nc1cccc(-c2nncn2C2CC2)n1)c1cc(-c2cnn(C3CCC3)c2)cn(Cc2ccccc2F)c1=O,0.289,–,> 80,10.7,> 80,–
O=C(N[C@@H](COc1ccc2[nH]c(=O)[nH]c2c1)c1ccccc1)c1cccn(Cc2ccc(F)c(F)c2)c1=O,> 5,–,40.4,64.8,36.2,96.4
O=C(Nc1cccc(-c2nncn2C2CC2)n1)c1cc(-c2cccnc2)cn(Cc2ccccc2F)c1=O,> 5,–,> 80,64.2,> 80,–
O=C(Nc1cccc(-c2nncn2C2CC2)c1)c1cc(-n2cnc(C3CC3)c2)ccn1,–,–,34.4,67.9,33.4,90.2
CC(C)n1cnnc1-c1cccc(NC(=O)c2cc3c(C(F)(F)F)nn(C)c3n(C)c2=O)c1,> 5,–,56.1,> 80,> 80,–
O=C(Nc1cccc(-c2nncn2C2CC2)n1)c1cc(-c2ccc3[nH]ccc3c2)cn(Cc2ccccc2F)c1=O,> 5,–,5.75,18.7,> 80,–
Cn1nc(C(F)(F)F)c2cc(C(=O)Nc3cccc(-c4nncn4C4CCCCC4)c3)c(=O)[nH]c21,> 5,–,> 80,> 80,> 80,–
O=C(Nc1cccc(-c2nncn2C2CC2)n1)c1cc(Br)cn(Cc2ccccc2F)c1=O,> 5,–,> 80,> 80,> 80,–
CC(C)n1cnnc1-c1cccc(NC(=O)c2cc3c(C(F)(F)F)nn(C)c3[nH]c2=O)n1,2.66,–,> 80,> 80,> 80,–
O=C(Nc1cccc(-c2nncn2C2CC2)n1)c1cc(-c2cnc(Cl)nc2)cn(Cc2ccccc2F)c1=O,2.37,–,> 80,29.2,> 80,–
Cc1cc(F)c(C(=O)Nc2cccc(-c3nncn3C(C)C)c2)cc1-n1cnc(C2CC2)c1,–,0.0129,–,–,–,–
O=C(Nc1cccc(-c2nncn2C2CC2)n1)c1cc(-c2cnn(C(F)F)c2)cn(Cc2ccccc2F)c1=O,0.291,–,58.5,> 80,> 80,–
